The record followed here is patent US20150265656A1, “HUMAN ENDOCRINE PROGENITORS FROM ADULT PANCREATIC TISSUE” (THE JOHNS HOPKINS UNIVERSITY, priority 2012, published 2015).

For assay [1], the system named is NGN3+ cells in cultured adult human pancreatic tissue. As to the kind of experiment: % NGN3+ nuclei/cells in cultured pancreatic tissue (immunostaining). It counts as cell-based. As to the method: Human cadaveric pancreas tissue that had been enzymatically digested and subjected to density centrifugation (57) was received 2-3 days post mortem. In all experiments, stated replication refers to the number of cultures from individual organ donors unless otherwise defined. Islet purity varied between preparations from <10% to >90%. Pancreatic tissue was resuspended in 10 ml Miami Media 1A (Mediatech) supplemented with freshly prepared 0.01 g/L glutathione and cultured in low adhesion dishes at 37° C. for 4 days. Media was replaced every 2-3 days. Inhibition of γ-secretase was carried out by daily addition of N—[N-(3,5-Difluorophenacetyl-L-alanyl)]-S-phenylglycine t-butyl ester (DAPT, Tocris Biosciences) or 7-Amino-4-chloro-3-methoxyisocoumarin (JLK6, EMD Biosceinces). JAG-1 (ANASPEC), a 17-residue polypeptide corresponding to amino acids 188-204 of the Jagged-1 Notch ligand (58) and a negative control polypeptide comprised of scrambled JAG-1 amino acids were used at 47 μM. A second Notch ligand, Delta-like ligand 4 (D114)(R&D Systems) was used at 500 ng/ml. Inhibition of proteasome degradation was carried out with N-[(Phenylmethoxy)carbonyl]-L-leucyl-N-[(1S)-1-formyl-3-methylbutyl]-L-leucinamide (MG132, Tocris Bioscience) and (2R,3S,4R)-3-Hydroxy-2-[(1S)-1-hydroxy-2-methylpropyl]-4-methyl-5-oxo-2-pyrrolidinecarboxy-N-acetyl-L cysteine thioester (clasto-lactacystin beta-lactone, Tocris Bioscience). Inhibition of EGF receptor kinase was carried out with N-(3-Chlorophenyl)-6,7-dimethoxy-4-quinazolinanine hydrochloride (AG1478, Tocris Bioscience) and with N-(3-Chlorophenyl)-6,7-dimethoxy-4-quinazolinanine hydrochloride (Erlotinib, Cayman Chemical). STAT3 activation was blocked with a cell-permeable analog of the STAT3-SH2 domain-binding phosphopeptide (PpYLKTK-mts, EMD Biosciences).
Tissues stained for NGN3 expression were sectioned and stained as soon as possible after harvest. Freshly sectioned 5-8 micron frozen sections of islet preparation tissue were fixed for 5 min. in 4% paraformaldehyde (PFA) prepared in phosphate buffered saline (PBS), quenched for 5 min in 50 mM glycine in PBS then blocked in 5% donkey serum, 1% BSA in PBS for 30 min. at room temperature. 0.1 to 0.2% Triton-X100 was included for cytoplasmic and nuclear antigens, respectively. Primary antibodies were diluted in blocking buffer; mouse anti-CD133/1 (IgG1) and CD133/2 (IgG2b) unconjugated and conjugated to phycoerythrin (Miltenyi Biotec), mouse anti-cytokeratin 19 (CK19, Chemicon), guinea pig anti-swine insulin (Dako), rabbit anti-CPEP (LINCO), mouse anti-GLU (R&D Systems), goat anti-PDX1 (gift from Chris Wright), mouse anti-CgA (Dako); goat anti-amylase (AMY, Santa Cruz), mouse anti-NGN3 (Developmental Studies Hybridoma Bank, Iowa City, Iowa, hybridoma supernatant), rabbit anti-cleaved caspase-3 (Cell Signaling Technology), rabbit Ki67 (abcam), mouse anti-human E-cadherin (Invitrogen). BrdU and EdU detection were by kit from BD Bioscience and Invitrogen, respectively. Quantitative analysis of protein expression on frozen sections was carried out by imaging >800 nuclei in randomly selected fields for each treatment group. For analysis of CD133+ cells immediately after preparative fluorescent activated cell sorting (FACS), cells were immobilized, fixed and quenched directly on glass slides using a cytospin. For identification and quantification cells within pancospheres, spheres were fixed and stained similarly to tissue sections except all incubations and washes were overnight at 4° C. Stained pancospheres were mounted on coverslipped glass slides. For quantitative analyses, unbiased stereology (Stereo Investigator software) was used to estimate number of nuclei per pancosphere. Sectioned tissue and pancospheres were imaged by confocal microscopy through the Z-axis in a series of 1 micron optical sections using sequential acquisition mode. […] Mean % CPEP, % GLU and % CgA were calculated from a total of 17 pancospheres.

In assay [2] the test system is pancospheres from CD133+/NGN3+ cells. Briefly: Pancosphere endocrine maturation, hormone-expressing cells. The format is cell-based, human. The settings on record: maturation media with 10 μM MPA. The protocol:
To form pancospheres, CD133+ cells were resuspended at 2×10^5 cells/ml in HuES media [Knockout DMEM (Invitrogen), 10% Knockout Serum Replacement (Invitrogen), 10% Albumax, 10 ng/ml fibroblast growth factor 2 (FGF2), 1×Na pyruvate, and 1× non-essential amino acids] conditioned by overnight incubation on human SDEC cells (59, 60) and 1-2% Matrigel. Media was supplemented every 3-4 days for up to 21 days. Media was then changed to Maturation media [RPMI 1640, 0.5% BSA, 10 mM nicotinamide, 50 ng/ml human insulin like growth factor II (IGF II, R&D Systems)] for 7 days with addition of fresh nicotinamide and IGF II every 2 days without media change. IGF II was then slowly withdrawn by subsequent 50% media changes. […]
Tissues stained for NGN3 expression were sectioned and stained as soon as possible after harvest. […] Quantitative analysis of protein expression on frozen sections was carried out by imaging >800 nuclei in randomly selected fields for each treatment group. […] For identification and quantification cells within pancospheres, spheres were fixed and stained similarly to tissue sections except all incubations and washes were overnight at 4° C. […] For quantitative analyses, unbiased stereology (Stereo Investigator software) was used to estimate number of nuclei per pancosphere. […] Mean % CPEP, % GLU and % CgA were calculated from a total of 17 pancospheres.

A further assay deals with PTF1A mRNA. Briefly: PTF1A mRNA level in cultured pancreatic tissue (quantitative RT-PCR). The format is cell-based, human. The settings on record: 4 days of culture. The protocol: (§1) Human cadaveric pancreas tissue that had been enzymatically digested and subjected to density centrifugation (57) was received 2-3 days post mortem. In all experiments, stated replication refers to the number of cultures from individual organ donors unless otherwise defined. Islet purity varied between preparations from <10% to >90%. Pancreatic tissue was resuspended in 10 ml Miami Media 1A (Mediatech) supplemented with freshly prepared 0.01 g/L glutathione and cultured in low adhesion dishes at 37° C. for 4 days. Media was replaced every 2-3 days. […]
(§2) Human adult and fetal pancreas RNA was commercially prepared. […] Levels of HES 1, PTF1A, PDX1, NGN3 and CYCLOPHILLIN A were determined by using Taqman® gene expression assays Hs00172878_m1, Hs00603586_g1, Hs00426216_m1, Hs00360700_g1 and Hs99999904_m1, respectively. Mean levels (6 readings/sample) of genes of interest were normalized to mean levels of CYCLOPHILLIN A. MicroRNAs hsa-mir-15a, hsa-mir-15b, hsa-mir-16 and hsa-mir-195 levels were measured using sequence specific reverse transcriptase primers and TaqMan® detection reagents (Applied Biosystems). Mean levels (6 readings/sample) of miRNAs were normalized to mean levels of 18S rRNA (Applied Biosystems Ribosomal RNA Reagent). Significance of RTPCR data was determined by ANOVA with Bonferroni-Holm Post hoc testing.

A further assay concerns HES1 mRNA. As to the kind of experiment: HES1 mRNA level in cultured pancreatic tissue (quantitative RT-PCR). The format is cell-based, human. The settings on record: 4 days of culture. The protocol: as §1, §2
Another assay deals with NGN3 mRNA. As to the kind of experiment: NGN3 mRNA level in cultured pancreatic tissue (quantitative RT-PCR). The format is cell-based, human. The settings on record: 4 days of culture. As to the method:
as §1, §2

Peptide text beside a SMILES is read from it. * marks the point of attachment. Cbz = O=C(OCc1ccccc1)*

As to “TGFα: EGF receptor ligand added to culture”, the “change of % NGN3+ cells” value in assay [1] (addition of TGFα 40 ng/ml) is given as “failed to significantly change”.
Consider `COc1oc(=O)c2cc(N)ccc2c1Cl` [JLK6, 7-Amino-4-chloro-3-methoxyisocoumarin], for which the “effect on % of cells expressing NGN3 protein” value in assay [1] (JLK6 treatment, 4 days) is “No significant effect”.
In the case of `COc1c(C)c2c(c(O)c1C/C=C(\C)CCC(=O)O)C(=O)OC2` [MPA, Mycophenolic acid], in assay [2] (carrier control 0.58%±0.2, P>0.05), the “% cells GLU+ in pancospheres” value is 1.1%±0.23. In addition, in assay [2] (carrier control 1.0±0.3), the “% cells CPEP+ in pancospheres” value is on record as 2.9%±0.4.
With `C#Cc1cccc(Nc2ncnc3cc(OCCOC)c(OCCOC)cc23)c1` [Erlotinib], the “% NGN3+ cells” value in assay [1] (0.25 μM Erlotinib, n=1, data not shown) worked out at 31.0±4.8.
Turning to “JAG-1 peptide: 17-residue polypeptide corresponding to amino acids 188-204 of the Jagged-1 Notch ligand (DDYYYGFGCNKFCRPRD; UniProt P78504 188-204, looked up, fragment)”, in assay [1] (47 μM, 4 days), the “% of cells expressing NGN3 protein, % of cells treated with scrambled peptide (SJAG)” value is 39.0%±6.5.
With “EGF: EGF receptor ligand added to culture (NSDSECPLSHDGYCLHDGVCMYIEALDKYACNCVVGYIGERCQYRDLKWWELR; Epidermal growth factor; UniProt P01133 971-1023, looked up)”, in assay [1] (addition of EGF 20 ng/ml), the “change of % NGN3+ cells” value is “failed to significantly change”.
In the case of `C[C@H](NC(=O)Cc1cc(F)cc(F)c1)C(=O)N[C@H](C(=O)OC(C)(C)C)c1ccccc1` [DAPT, N—[N-(3,5-Difluorophenacetyl-L-alanyl)]-S-phenylglycine t-butyl ester], the “level of PTF1A mRNA, % of carrier control” value is on record as 331.2%±10.8 in the assay on PTF1A mRNA (2 μM DAPT) and 391.6%±28.8 in the assay on PTF1A mRNA (20 μM DAPT). Moreover, the “% of cells expressing NGN3 protein, % of carrier control” value in assay [1] (2 μM DAPT, 4 days) is listed as 124%±1.1; in assay [1] (20 μM DAPT, 4 days) it was 152.0%±2.2. For the same compound, the “effect on the D114-induced decrease of % NGN3+ cells” value in assay [1] (DAPT together with D114) is reported as “blocked”. The “level of HES1 mRNA, % of carrier control” value in the assay on HES1 mRNA (2 μM DAPT) is reported as 63.0%±3.3; in the assay with HES1 mRNA (20 μM DAPT), 55.4%±1.5. Moreover, the “level of NGN3 mRNA, % of carrier control” value with NGN3 mRNA (2 μM DAPT) is 927.4%±52.6; in the assay with NGN3 mRNA (20 μM DAPT), 1886.3%±102.4.
As to `COc1cc2ncnc(Nc3cccc(Cl)c3)c2cc1OC.Cl` [AG1478, N-(3-Chlorophenyl)-6,7-dimethoxy-4-quinazolinanine hydrochloride], the “% NGN3+ cells, % of carrier control” value in assay [1] (3 nM AG1478, 4 days) was 69.1%±7.3; in assay [1] (30 nM AG1478, 4 days) it was 62.3%±8.2.
Take `CC(C)C[C@@H](C=O)NC(=O)[C@H](CC(C)C)NC(=O)[C@H](CC(C)C)NC(=O)OCc1ccccc1` [MG132, N-[(Phenylmethoxy)carbonyl]-L-leucyl-N-[(1S)-1-formyl-3-methylbutyl]-L-leucinamide] (Cbz-Leu-Leu-Leu-aldehyde): the “% NGN3+ cells, % of carrier control” value in assay [1] (1 μM MG132, 4 days) is 182.8%±14.9; in assay [1] (10 μM MG132, 4 days) it was 478.8%±33.6; in assay [1] (20 μM MG132, 4 days), 533.6%±28.9.
Turning to “D114: Notch ligand Delta-like ligand 4 (R&D Systems)”, the “% of NGN3+ cells, percent of carrier control” value in assay [1] (500 ng/ml, data not shown) was 60.1%±11.4.
